Calls of active or inactive are those of the source. No cut-off for these calls is given here.
Legend:
PC-12 [1] = test: Cytotoxicity against rat PC-12 cells at 25 uM incubated for 24 hrs by MTT assay; type: cell-based; conditions: pc-12, 24 h
PC-12 [2] = test: Cytoprotective activity against H2O2- induced cell death in rat PC-12 cells assessed as increase in viable cells pretreated for 12 hrs followed by H2O2 challenge by MTT assay; type: functional, cell-based; conditions: dose 2.5-10 µM
PC-12 [3] = test: Cytoprotective activity against 6-OHDA induced cell death in rat PC-12 cells assessed as increase in viable cells at 10 uM pretreated for 12 hrs followed by 6-OHDA challenge by MTT assay relative to control; type: functional
PC-12 [4] = test: Cytoprotective activity against 6-OHDA induced cell death in rat PC-12 cells assessed as decrease in LDH release pretreated for 12 hrs followed by 6-OHDA challenge by LDH assay; type: functional, cell-based; conditions: dose 2.5-10 µM
PC-12 [5] = test: Cytoprotective activity against H2O2- induced cell death in rat PC-12 cells assessed as decrease in LDH release pretreated for 12 hrs followed by H2O2 challenge by LDH assay; type: functional, cell-based; conditions: dose 2.5-10 µM
PC-12 [6] = test: Protection against H2O2-induced mitochondrial dysfunction in rat PC-12 cells assessed as change in mitochondrial membrane potential at 5 uM pretreated with compound for 12 hrs followed by H2O2 challenge by JC-1 staining based flow cytometry (reference value: 73 %); type: functional
PC-12 [7] = test: Prevention of 6-OHDA-induced calcium overload in rat PC-12 cells assessed as reduction in intracellular free calcium pretreated with compound for 12 hrs followed by 6-OHDA challenge by Fluo-3AM based fluorescence assay; type: functional, cell-based; conditions: dose 2.5-10 µM
PC-12 [8] = test: Protection against 6-OHDA-induced mitochondrial dysfunction in rat PC-12 cells assessed as change in mitochondrial membrane potential at 5 uM pretreated with compound for 12 hrs followed by 6-OHDA challenge by JC-1 staining based flow cytometry (reference value: 56 %); type: functional
PC-12 [9] = test: Protection against 6-OHDA-induced mitochondrial dysfunction in rat PC-12 cells assessed as change in mitochondrial membrane potential at 10 uM pretreated with compound for 12 hrs followed by 6-OHDA challenge by JC-1 staining based flow cytometry (reference value: 56 %); type: functional
PC-12 [10] = test: Protection against H2O2-induced apoptosis in rat PC-12 cells assessed as late apoptic cells at 5 uM pretreated for 12 hrs followed by H2O2 challenge by annexin V FITC/propidium iodide staining based flow cytometry (reference value: 20.8 %); type: functional
PC-12 [11] = test: Protection against 6-OHDA-induced apoptosis in rat PC-12 cells assessed as viable cells at 5 uM pretreated for 12 hrs followed by 6-OHDA challenge by annexin V FITC/propidium iodide staining based flow cytometry (reference value: 76.7 %); type: functional; conditions: read-out: Activity
PC-12 [12] = test: Protection against 6-OHDA-induced apoptosis in rat PC-12 cells assessed as necrotic cells at 5 uM pretreated for 12 hrs followed by 6-OHDA challenge by annexin V FITC/propidium iodide staining based flow cytometry (reference value: 3.7 %); type: functional
PC-12 [13] = test: Protection against 6-OHDA-induced apoptosis in rat PC-12 cells assessed as late apoptotic cells at 10 uM pretreated for 12 hrs followed by 6-OHDA challenge by annexin V FITC/propidium iodide staining based flow cytometry (reference value: 17.3 %); type: functional
PC-12 [14] = test: Protection against 6-OHDA-induced apoptosis in rat PC-12 cells assessed as necrotic cells at 10 uM pretreated for 12 hrs followed by 6-OHDA challenge by annexin V FITC/propidium iodide staining based flow cytometry (reference value: 3.7 %); type: functional
PC-12 [15] = test: Cytoprotective activity against H2O2-induced oxidative stress in rat PC-12 cells assessed as decrease in cell death at 10 uM pretreated for 12 hrs followed by H2O2 challenge by MTT assay; type: functional, cell-based
PC-12 [16] = test: Cytoprotective activity against 6-OHDA-induced oxidative stress in rat PC-12 cells assessed as decrease in cell death at 10 uM pretreated for 12 hrs followed by 6-OHDA challenge by MTT assay; type: functional, cell-based
PC-12 [17] = test: Cytoprotective activity against 6-OHDA-induced oxidative stress in rat PC-12 cells assessed as decrease in cell death at 10 uM pretreated with brusatol for 1 hr followed by compound treatment for 12 hrs and subsequent 6-OHDA challenge by MTT assay; type: functional, cell-based
PC-12 [18] = test: Activation of Keap1-Nrf2-ARE pathway in rat PC-12 assessed as upregulation of NQO1 protein expression measured after 12 hrs by Western blot analysis; conditions: filed as activator, dose 2.5-10 µM
PC-12 [19] = test: Cytoprotective activity against H2O2-induced cell damage in rat PC-12 cells transfected with Nrf2 siRNA at 10 uM; type: functional, cell-based
[20] = biological target: T1, Nuclear factor erythroid 2-related factor 2 (Mus musculus) (UniProt Q60795); test: Activation of Nrf2 in mouse BV-2 cells assessed as decrease in LPS-induced IL-6 production pretreated with compound for 2 hrs followed by LPS stimulation and further incubated for 18 hrs […]; type: cell-based; conditions: filed as activator, dose 10.0 µM, time 20.0 hrs
T1 sequence (whole entry): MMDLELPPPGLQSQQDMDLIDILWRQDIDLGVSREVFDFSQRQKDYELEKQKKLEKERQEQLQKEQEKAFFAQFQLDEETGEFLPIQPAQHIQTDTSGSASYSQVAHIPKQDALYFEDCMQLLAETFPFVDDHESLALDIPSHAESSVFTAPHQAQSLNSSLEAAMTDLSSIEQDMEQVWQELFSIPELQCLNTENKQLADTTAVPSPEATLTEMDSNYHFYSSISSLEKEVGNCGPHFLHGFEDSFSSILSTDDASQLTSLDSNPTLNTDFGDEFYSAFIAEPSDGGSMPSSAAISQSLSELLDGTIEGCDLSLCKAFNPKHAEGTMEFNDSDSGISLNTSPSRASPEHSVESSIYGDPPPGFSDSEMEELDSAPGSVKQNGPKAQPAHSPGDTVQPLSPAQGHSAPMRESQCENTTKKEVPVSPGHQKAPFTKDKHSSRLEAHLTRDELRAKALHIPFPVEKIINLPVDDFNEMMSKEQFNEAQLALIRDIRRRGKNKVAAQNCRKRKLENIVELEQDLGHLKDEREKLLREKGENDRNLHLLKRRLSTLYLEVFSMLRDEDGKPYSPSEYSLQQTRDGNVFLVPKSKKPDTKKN

[21] = biological target: T1, Nuclear factor erythroid 2-related factor 2 (Mus musculus); test: Activation of Nrf2 in mouse BV-2 cells assessed as upregulation of HO-1 protein expression after 24 hrs by Western blot analysis; type: cell-based; conditions: filed as activator, dose 2.5-10 µM
[22] = biological target: T1, Nuclear factor erythroid 2-related factor 2 (Mus musculus); test: Activation of Nrf2 in mouse BV-2 cells assessed as upregulation of Nrf2 protein expression after 24 hrs by Western blot analysis; type: cell-based; conditions: filed as activator, dose 2.5-10 µM
[23] = biological target: T1, Nuclear factor erythroid 2-related factor 2 (Mus musculus); test: Activation of Nrf2 in mouse BV-2 cells assessed as upregulation of GCLM protein expression after 24 hrs by Western blot analysis; type: cell-based; conditions: filed as activator, dose 2.5-10 µM
[24] = biological target: T1, Nuclear factor erythroid 2-related factor 2 (Mus musculus); test: Activation of Nrf2 in mouse BV-2 cells assessed as upregulation of GCLC protein expression after 24 hrs by Western blot analysis; type: cell-based; conditions: filed as activator, dose 2.5-10 µM
BV-2 = test: Antiinflammatory activity in mouse BV-2 cells transfected with Nrf2 siRNA assessed as inhibition of LPS-induced NO production at 10 uM pretreated with compound for 2 hrs followed by LPS stimulation and further incubated for 18 hrs; type: functional, cell-based; conditions: time 20.0 hrs
[25] = Binding affinity to N-Acetyl-L-cysteine assessed ascompound-NAC covalent adduct formation measured after 3 hrs by Q-TOF mass spectroscopy

CN1C(N)=N[C@](C)(c2cc(-n3[se]c4cc(F)ccc4c3=O)ccc2F)CS1(=O)=O
Activity (PC-12 [1]): Non-Toxic
Activity (PC-12 [2]): Dose-Dependent Effect
Activity (PC-12 [3]): 77%
Activity (PC-12 [4]): Dose-Dependent Effect
Activity (PC-12 [5]): Dose-Dependent Effect
Activity (PC-12 [6]): 85.9%
Activity (PC-12 [7]): Dose-Dependent Effect
Activity (PC-12 [8]): 64.8%
Activity (PC-12 [9]): 78.6%
Activity (PC-12 [10]): 8.1%
viability at 5 µM (PC-12 [11]): 83.4%
Activity (PC-12 [12]): 2.3%
Activity (PC-12 [13]): 6.7%
Activity (PC-12 [14]): 1.4%
Activity (PC-12 [15]): Active
Activity (PC-12 [16]): Active
Activity (PC-12 [17]): inactive
Activity (PC-12 [18]): Active
Activity (PC-12 [19]): inactive
Activity [20]: Active
Activity [21]: Dose-Dependent Effect
Activity [22]: Dose-Dependent Effect
Activity [23]: Dose-Dependent Effect
Activity [24]: Dose-Dependent Effect
Activity (BV-2): inactive
Activity [25]: Active
